What is called inhibition is how much of the control response was suppressed. Usually IC50 stands for the concentration needed to halve the response being measured.

From article doi:10.1101/2025.11.12.688093v2 (biorxiv, 2026) come the findings set out here.

What all share (assay type): biochemical
For one assay, the target named is CDK4/CycD1 (Homo sapiens, UniProt P11802). Kind of assay: kinase panel, HTRF or ADP-Glo, single dose. The note with it: read-out: % inhibition at 1 μM. (In general: In TR-FRET formats the signal depends on donor and acceptor labels being close together.)
In assay [1] the target is recombinant CK2 (casein kinase 2) (Homo sapiens, UniProt P68400). Kind of assay: Kinase-Glo residual ATP luminescence. For orientation: Kinase-Glo reads ATP consumption through a luciferase reaction.
For a further assay, the target named is CDK3/CycE1 (Homo sapiens, UniProt Q00526). Kind of assay: kinase panel, HTRF or ADP-Glo, single dose. The note with it: read-out: % inhibition at 10 μM.
For another assay, the target named is CDK1/CycA2 (Homo sapiens, UniProt P06493). Kind of assay: kinase panel, HTRF or ADP-Glo, single dose. To be noted: read-out: % inhibition at 10 μM.
Another assay addresses CDK9/CycT1 (Homo sapiens, UniProt P50750). Kind of assay: kinase panel, HTRF or ADP-Glo, single dose. The note with it: read-out: % inhibition at 10 μM.
The next assay concerns the target CDK2/CycE1 (Homo sapiens, UniProt P24941). Nature of the assay: kinase panel, HTRF or ADP-Glo, single dose. To be noted: read-out: % inhibition at 10 μM.

The structures appear in SMILES notation.

recombinant CK2 (casein kinase 2), sequence (P68400 whole entry): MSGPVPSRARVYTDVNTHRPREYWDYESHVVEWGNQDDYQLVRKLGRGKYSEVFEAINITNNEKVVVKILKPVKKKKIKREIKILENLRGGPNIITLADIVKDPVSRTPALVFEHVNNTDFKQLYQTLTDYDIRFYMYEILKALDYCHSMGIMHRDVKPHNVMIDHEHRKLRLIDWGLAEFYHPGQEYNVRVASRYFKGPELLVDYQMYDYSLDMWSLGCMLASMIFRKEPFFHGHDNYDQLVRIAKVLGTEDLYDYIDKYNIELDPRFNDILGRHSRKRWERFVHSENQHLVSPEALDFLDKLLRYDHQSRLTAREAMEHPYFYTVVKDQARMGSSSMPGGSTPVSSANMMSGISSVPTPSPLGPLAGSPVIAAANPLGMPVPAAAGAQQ
recombinant CK2 (casein kinase 2), sequence (P67870 2-215 partner): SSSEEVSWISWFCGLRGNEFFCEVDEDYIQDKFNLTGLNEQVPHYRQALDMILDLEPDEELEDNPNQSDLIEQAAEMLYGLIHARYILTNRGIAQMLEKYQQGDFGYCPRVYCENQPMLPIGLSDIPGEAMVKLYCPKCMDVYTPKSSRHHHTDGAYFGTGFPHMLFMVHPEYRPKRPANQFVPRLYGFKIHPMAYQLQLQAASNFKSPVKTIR
CDK4/CycD1, sequence (P11802 2-303): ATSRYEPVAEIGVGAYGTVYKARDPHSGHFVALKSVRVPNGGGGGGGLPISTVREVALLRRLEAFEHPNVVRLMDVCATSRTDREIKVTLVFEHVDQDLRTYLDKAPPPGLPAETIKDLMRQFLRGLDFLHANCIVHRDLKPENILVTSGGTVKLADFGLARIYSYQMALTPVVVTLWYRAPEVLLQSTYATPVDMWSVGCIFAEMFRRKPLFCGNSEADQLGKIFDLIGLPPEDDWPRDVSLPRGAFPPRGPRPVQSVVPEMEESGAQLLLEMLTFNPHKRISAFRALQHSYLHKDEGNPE
CDK4/CycD1, sequence (P24385 whole entry partner): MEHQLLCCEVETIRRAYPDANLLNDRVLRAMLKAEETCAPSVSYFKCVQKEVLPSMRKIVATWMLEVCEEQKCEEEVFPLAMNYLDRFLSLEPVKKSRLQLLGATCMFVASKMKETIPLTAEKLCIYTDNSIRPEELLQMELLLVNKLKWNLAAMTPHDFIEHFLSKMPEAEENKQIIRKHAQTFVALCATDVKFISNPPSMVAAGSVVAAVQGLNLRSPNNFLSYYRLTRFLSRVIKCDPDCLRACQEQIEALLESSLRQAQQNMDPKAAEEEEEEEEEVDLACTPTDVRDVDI
CDK9/CycT1, sequence (P50750 whole entry): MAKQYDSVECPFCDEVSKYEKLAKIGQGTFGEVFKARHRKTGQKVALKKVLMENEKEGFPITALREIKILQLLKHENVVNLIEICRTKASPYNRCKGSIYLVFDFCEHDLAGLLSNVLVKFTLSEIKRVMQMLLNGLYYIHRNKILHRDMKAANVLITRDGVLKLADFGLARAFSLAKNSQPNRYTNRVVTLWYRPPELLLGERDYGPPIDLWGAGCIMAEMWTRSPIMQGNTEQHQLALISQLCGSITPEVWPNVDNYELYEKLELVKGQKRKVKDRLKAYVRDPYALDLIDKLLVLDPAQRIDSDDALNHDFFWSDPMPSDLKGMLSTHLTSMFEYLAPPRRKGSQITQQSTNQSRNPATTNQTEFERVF
CDK9/CycT1, sequence (O60563 whole entry partner): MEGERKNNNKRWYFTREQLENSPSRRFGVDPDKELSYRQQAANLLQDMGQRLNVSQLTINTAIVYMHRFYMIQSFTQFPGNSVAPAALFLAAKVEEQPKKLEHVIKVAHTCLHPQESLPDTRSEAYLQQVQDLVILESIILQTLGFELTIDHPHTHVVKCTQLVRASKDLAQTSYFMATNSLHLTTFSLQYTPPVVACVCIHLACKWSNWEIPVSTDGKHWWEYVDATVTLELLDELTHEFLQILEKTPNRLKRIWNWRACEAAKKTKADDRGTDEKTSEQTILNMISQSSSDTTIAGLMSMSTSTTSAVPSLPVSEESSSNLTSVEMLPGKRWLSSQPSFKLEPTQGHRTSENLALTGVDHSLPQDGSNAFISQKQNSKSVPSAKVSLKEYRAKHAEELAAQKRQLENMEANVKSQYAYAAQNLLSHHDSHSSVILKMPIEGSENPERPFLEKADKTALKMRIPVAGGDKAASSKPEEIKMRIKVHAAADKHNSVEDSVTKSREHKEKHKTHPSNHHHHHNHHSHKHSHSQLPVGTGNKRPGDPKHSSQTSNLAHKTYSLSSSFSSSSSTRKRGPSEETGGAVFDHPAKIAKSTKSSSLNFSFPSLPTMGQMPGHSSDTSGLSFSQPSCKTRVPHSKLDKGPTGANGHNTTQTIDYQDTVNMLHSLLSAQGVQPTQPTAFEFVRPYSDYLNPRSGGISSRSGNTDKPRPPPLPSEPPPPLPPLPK
CDK1/CycA2, sequence (P20248 whole entry): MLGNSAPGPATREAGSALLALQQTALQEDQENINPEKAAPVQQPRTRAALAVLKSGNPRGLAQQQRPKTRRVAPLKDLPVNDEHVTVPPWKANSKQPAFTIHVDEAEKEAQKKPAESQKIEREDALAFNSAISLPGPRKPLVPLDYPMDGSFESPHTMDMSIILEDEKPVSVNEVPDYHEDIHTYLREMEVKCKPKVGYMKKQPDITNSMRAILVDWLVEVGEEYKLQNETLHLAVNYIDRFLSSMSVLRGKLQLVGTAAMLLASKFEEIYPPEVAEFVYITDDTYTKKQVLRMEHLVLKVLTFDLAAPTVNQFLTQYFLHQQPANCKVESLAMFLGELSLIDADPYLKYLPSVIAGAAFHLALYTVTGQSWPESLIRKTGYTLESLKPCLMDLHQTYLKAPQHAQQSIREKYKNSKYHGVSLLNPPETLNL
CDK1/CycA2, sequence (P06493 whole entry): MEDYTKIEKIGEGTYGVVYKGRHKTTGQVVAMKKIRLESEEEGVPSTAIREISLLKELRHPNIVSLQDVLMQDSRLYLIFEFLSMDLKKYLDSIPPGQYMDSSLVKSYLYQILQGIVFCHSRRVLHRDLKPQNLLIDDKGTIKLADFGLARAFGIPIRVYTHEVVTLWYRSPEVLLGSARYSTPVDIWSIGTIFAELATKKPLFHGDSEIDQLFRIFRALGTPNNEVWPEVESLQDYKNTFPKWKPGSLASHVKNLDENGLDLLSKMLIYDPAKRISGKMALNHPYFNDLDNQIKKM
CDK3/CycE1, sequence (Q00526 whole entry): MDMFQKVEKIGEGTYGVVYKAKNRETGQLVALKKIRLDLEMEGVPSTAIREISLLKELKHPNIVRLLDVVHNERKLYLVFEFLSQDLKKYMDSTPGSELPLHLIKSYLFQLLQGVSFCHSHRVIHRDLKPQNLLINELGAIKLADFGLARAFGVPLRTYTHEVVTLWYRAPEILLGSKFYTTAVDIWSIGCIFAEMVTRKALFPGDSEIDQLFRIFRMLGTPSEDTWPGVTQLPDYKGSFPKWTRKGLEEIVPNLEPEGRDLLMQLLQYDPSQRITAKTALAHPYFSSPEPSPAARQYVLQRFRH
CDK3/CycE1, sequence (P24864 whole entry, further chain): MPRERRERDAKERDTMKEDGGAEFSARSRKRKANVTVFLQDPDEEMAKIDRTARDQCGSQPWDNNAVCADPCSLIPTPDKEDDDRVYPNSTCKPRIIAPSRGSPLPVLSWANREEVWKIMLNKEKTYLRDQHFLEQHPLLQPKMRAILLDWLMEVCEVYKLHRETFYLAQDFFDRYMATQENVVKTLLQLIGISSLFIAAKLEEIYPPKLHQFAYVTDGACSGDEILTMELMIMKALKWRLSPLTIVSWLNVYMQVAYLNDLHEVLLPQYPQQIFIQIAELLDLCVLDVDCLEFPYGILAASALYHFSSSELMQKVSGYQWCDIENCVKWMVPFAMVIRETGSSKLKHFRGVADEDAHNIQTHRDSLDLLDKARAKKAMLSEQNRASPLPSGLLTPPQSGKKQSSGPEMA

On to `N=C1NC(=O)/C(=C/c2ccc(O)c([N+](=O)[O-])c2)S1` [compound 2, Compound 2], for which, at CDK4/CycD1, the inhibition at 1 µM came to 10.2%. Moreover, the IC50 in assay [1] is 156 nM.
With `Cc1cccc(NCN2C(=O)S/C(=C\c3ccccc3)C2=O)c1` [compound 3, Compound 3], the inhibition at 10 µM at CDK3/CycE1 came out at 15.3%; at CDK1/CycA2, 14.7%; at CDK9/CycT1, 36.1%; on CDK2/CycE1, 12.4%. The IC50 in assay [1] came to 199 nM.
